In one series the target is T1, ENaC (Homo sapiens, UniProt P37088+P51168+P51170).
T1 construct: host or cells: primary human bronchial epithelial cells (HBECs) differentiated at air-liquid interface
T1 sequence (P37088 1-669): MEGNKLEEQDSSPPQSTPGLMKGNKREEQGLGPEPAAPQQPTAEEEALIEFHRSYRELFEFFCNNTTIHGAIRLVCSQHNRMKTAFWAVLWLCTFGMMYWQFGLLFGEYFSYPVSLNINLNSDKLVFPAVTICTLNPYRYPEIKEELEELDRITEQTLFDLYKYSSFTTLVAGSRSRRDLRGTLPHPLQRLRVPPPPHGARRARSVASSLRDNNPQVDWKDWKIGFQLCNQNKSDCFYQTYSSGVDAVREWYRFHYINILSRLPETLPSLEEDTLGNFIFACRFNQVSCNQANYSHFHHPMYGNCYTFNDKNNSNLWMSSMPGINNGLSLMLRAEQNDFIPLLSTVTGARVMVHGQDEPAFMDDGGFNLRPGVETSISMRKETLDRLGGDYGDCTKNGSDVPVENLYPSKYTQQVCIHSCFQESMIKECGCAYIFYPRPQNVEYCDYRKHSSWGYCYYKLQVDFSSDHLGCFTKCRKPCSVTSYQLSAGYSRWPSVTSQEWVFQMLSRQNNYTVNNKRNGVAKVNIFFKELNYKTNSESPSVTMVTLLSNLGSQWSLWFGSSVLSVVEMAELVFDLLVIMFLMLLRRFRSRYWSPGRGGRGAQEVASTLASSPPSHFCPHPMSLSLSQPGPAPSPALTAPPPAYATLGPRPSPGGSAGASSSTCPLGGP
T1 sequence (P51168 1-640): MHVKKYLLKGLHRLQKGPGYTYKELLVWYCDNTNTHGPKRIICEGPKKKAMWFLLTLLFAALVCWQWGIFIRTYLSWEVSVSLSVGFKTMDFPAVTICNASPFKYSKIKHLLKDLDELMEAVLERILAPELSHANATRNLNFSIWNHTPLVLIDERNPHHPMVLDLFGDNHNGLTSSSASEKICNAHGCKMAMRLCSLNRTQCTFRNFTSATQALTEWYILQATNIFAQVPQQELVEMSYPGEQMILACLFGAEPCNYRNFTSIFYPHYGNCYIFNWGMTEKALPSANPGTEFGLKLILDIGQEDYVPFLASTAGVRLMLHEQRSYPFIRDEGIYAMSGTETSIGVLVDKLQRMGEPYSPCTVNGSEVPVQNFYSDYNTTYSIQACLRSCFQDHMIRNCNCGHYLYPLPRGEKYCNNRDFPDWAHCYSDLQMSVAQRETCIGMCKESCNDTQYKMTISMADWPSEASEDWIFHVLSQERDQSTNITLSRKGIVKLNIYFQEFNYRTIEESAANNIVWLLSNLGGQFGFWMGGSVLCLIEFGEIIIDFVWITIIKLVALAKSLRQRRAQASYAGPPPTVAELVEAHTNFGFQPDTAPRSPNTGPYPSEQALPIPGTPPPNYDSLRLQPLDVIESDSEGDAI
T1 sequence (P51170 1-649): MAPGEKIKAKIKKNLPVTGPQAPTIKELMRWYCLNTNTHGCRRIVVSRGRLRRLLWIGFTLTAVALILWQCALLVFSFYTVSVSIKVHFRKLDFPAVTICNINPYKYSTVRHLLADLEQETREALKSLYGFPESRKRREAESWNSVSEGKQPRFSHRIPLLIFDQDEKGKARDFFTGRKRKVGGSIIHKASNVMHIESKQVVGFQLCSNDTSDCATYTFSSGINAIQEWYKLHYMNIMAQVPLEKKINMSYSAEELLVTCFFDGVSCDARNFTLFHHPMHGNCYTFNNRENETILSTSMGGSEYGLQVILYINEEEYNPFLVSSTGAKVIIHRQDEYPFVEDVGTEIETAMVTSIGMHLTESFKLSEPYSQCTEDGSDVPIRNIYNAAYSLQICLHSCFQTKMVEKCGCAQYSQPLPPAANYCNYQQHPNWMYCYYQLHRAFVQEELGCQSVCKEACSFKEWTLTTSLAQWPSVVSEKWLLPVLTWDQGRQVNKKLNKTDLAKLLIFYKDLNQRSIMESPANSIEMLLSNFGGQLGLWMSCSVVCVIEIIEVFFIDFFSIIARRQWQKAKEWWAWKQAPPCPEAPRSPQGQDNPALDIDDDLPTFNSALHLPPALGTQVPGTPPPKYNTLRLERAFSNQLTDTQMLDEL
Put plainly: Short circuit current assay to determine ENaC blocker potency in human bronchial epithelial cells. Format: cell-based. The note with it: 50% inhibition of total amiloride-sensitive ISC, apical addition, read-out: Averages.ENaC IC50 (nM) Avg. An outline of the steps: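 Primary human bronchial epithelial cells at air-liquid interface (days 14–21) were voltage-clamped at 0 mV in Ussing chambers (Ringer, pH 7.4, 37° C.). Compounds were added apically as cumulative concentrations, then 10 μM amiloride. IC50 was taken as 50% inhibition of amiloride-sensitive ISC.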

Series [1] is described as follows: Bronchoalveolar lavage (BAL) procedure: compound levels after intratracheal administration. Format: in vivo. The note with it: bronchoalveolar lavage fluid (BAL), other: intratracheal, 0.1 mg/kg, rat, 0.1 mg/mL solution in 5% dextrose, 1 mL/Kg, BAL 6 hours after administration, LC/MS/MS. The method, then: Example 69—Bronchoalveolar Lavage (BAL) Procedure A 0.1 mg/mL solution of ENaC inhibitor in 5% dextrose was administered intratracheally to a rat weighing 225-250 g. A volume of 1 mL/Kg was used. After 6 hours, lungs were lavaged with 3×4 mL of sterile saline. A 1 mL aliquot was subsequently snap frozen. Lungs were excised, weighed and snap frozen. Compound levels in the BAL and lung tissue were subsequently determined using LC/MS/MS bioanalysis.

From US12371436B2, “Substituted benzodiazoliums as ENaC inhibitors” (ENTERPRISE THERAPEUTICS LIMITED, priority 2016, dated 2025) come the findings set out here.

For the molecule `CCn1c(CNC(=O)c2nc3cc[nH]c3nc2N)[n+](CC)c2ccc(C(=O)N3CCC(CN(C[C@H](O)[C@@H](O)[C@H](O)[C@H](O)CO)C[C@H](O)[C@@H](O)[C@H](O)[C@H](O)CO)CC3)cc21` [Example 52, 2-[({3-amino-5H-pyrrolo[2,3-b]pyrazin-2-yl}formamido)methyl]-5-[4-({bis[(2S,3R,4R,5R)-2,3,4,5,6-pentahydroxyhexyl]amino}methyl)piperidine-1-carbonyl]-1,3-diethyl-1H-1,3-benzodiazol-3-ium], at ENaC, the half-maximal inhibitory concentration (IC50) was 69 nM. The same molecule had a concentration at 6 h in series [1] of 302 ng/mL.
For the molecule `CCn1c(CNC(=O)c2nc3cc[nH]c3nc2N)[n+](CC)c2ccc(C(=O)N3CC[C@H](N(C[C@H](O)[C@@H](O)[C@H](O)[C@H](O)CO)C[C@H](O)[C@@H](O)[C@H](O)[C@H](O)CO)C3)cc21` [Example 54, 2-[({3-amino-5H-pyrrolo[2,3-b]pyrazin-2-yl}formamido)methyl]-6-[(3S)-3-{bis[(2S,3R,4R,5R)-2,3,4,5,6-pentahydroxyhexyl]amino}pyrrolidine-1-carbonyl]-1,3-diethyl-1H-1,3-benzodiazol-3-ium], at ENaC, the half-maximal inhibitory concentration (IC50) turned out to be 49 nM. The molecule also gave a concentration at 6 h in series [1] of 139 ng/mL.
The like results for `CCn1c(CNC(=O)c2nc3cc[nH]c3nc2N)[n+](CC)c2ccc(C(=O)N[C@H]3CC[C@H](N(C[C@H](O)[C@@H](O)[C@H](O)[C@H](O)CO)C[C@H](O)[C@@H](O)[C@H](O)[C@H](O)CO)CC3)cc21` [Example 55, 2-[({3-amino-5H-pyrrolo[2,3-b]pyrazin-2-yl}formamido)methyl]-1,3-diethyl-6-{[(1r,4r)-4-{bis[(2S,3R,4R,5R)-2,3,4,5,6-pentahydroxyhexyl]amino}cyclohexyl]carbamoyl}-1H-1,3-benzodiazol-3-ium] were, in that order, 78 nM and 284 ng/mL.
The like results for `CCn1c(CNC(=O)c2nc3cc[nH]c3nc2N)[n+](CC)c2ccc(C(=O)N[C@H]3CC[C@@H](N(C[C@H](O)[C@@H](O)[C@H](O)[C@H](O)CO)C[C@H](O)[C@@H](O)[C@H](O)[C@H](O)CO)CC3)cc21` [Example 56, 2-[({3-amino-5H-pyrrolo[2,3-b]pyrazin-2-yl}formamido)methyl]-1,3-diethyl-6-{[(1s,4s)-4-{bis[(2S,3R,4R,5R)-2,3,4,5,6-pentahydroxyhexyl]amino}cyclohexyl]carbamoyl}-1H-1,3-benzodiazol-3-ium] were, in that order, 15 nM and 283 ng/mL.
The like results for `CCn1c(CNC(=O)c2nc3cc[nH]c3nc2N)[n+](CC)c2ccc(C(=O)N(C)CCCN(C[C@H](O)[C@@H](O)[C@H](O)[C@H](O)CO)C[C@H](O)[C@@H](O)[C@H](O)[C@H](O)CO)cc21` [Example 57, 2-[({3-amino-5H-pyrrolo[2,3-b]pyrazin-2-yl}formamido)methyl]-6-[(3-{bis[(2S,3R,4R,5R)-2,3,4,5,6-pentahydroxyhexyl]amino}propyl)(methyl)carbamoyl]-1,3-diethyl-1H-1,3-benzodiazol-3-ium] were, in that order, 36 nM and 283 ng/mL.
Take `CCn1c(CNC(=O)c2nc3cc[nH]c3nc2N)[n+](CC)c2ccc(C(=O)NCCN(C[C@H](O)[C@@H](O)[C@H](O)[C@H](O)CO)C[C@H](O)[C@@H](O)[C@H](O)[C@H](O)CO)cc21` [Example 58, 2-[({3-amino-5H-pyrrolo[2,3-b]pyrazin-2-yl}formamido)methyl]-6-[(2-{bis[(2S,3R,4R,5R)-2,3,4,5,6-pentahydroxyhexyl]amino}ethyl)carbamoyl]-1,3-diethyl-1H-1,3-benzodiazol-3-ium]: the IC50 on ENaC was 78 nM. The same molecule yielded a concentration at 6 h in series [1] of 256 ng/mL.
For `CCn1c(CNC(=O)c2nc3cc[nH]c3nc2N)[n+](CC)c2ccc(C(=O)NCCOCCOCCOCCN(C[C@H](O)[C@@H](O)[C@H](O)[C@H](O)CO)C[C@H](O)[C@@H](O)[C@H](O)[C@H](O)CO)cc21` [Example 59, 2-[({3-amino-5H-pyrrolo[2,3-b]pyrazin-2-yl}formamido)methyl]-1,3-diethyl-5-{[(14S,15R,16R,17R)-14,15,16,17,18-pentahydroxy-12-[(2S,3R,4R,5R)-2,3,4,5,6-pentahydroxyhexyl]-3,6,9-trioxa-12-azaoctadecan-1-yl]carbamoyl}-1H-1,3-benzodiazol-3-ium], on ENaC, the IC50 amounted to 171 nM. The same molecule returned a concentration at 6 h in series [1] of 197 ng/mL.
Take `CCn1c(CNC(=O)c2nc3cc[nH]c3nc2N)[n+](CC)c2ccc(C(=O)NCCc3ccc(-c4ccc(CCN(C[C@H](O)[C@@H](O)[C@H](O)[C@H](O)CO)C[C@H](O)[C@@H](O)[C@H](O)[C@H](O)CO)cc4)cc3)cc21` [Example 60, 2-[({3-amino-5H-pyrrolo[2,3-b]pyrazin-2-yl}formamido)methyl]-6-({2-[4′-(2-{bis[(2S,3R,4R,5R)-2,3,4,5,6-pentahydroxyhexyl]amino}ethyl)-[1,1′-biphenyl]-4-yl]ethyl}carbamoyl)-1,3-diethyl-1H-1,3-benzodiazol-3-ium]: the IC50 at ENaC was found to be 22 nM. Besides, the concentration at 6 h in series [1] turned out to be 176 ng/mL.
With `CCn1c(CNC(=O)c2nc3cc[nH]c3nc2N)[n+](CC)c2ccc(C(=O)NCC[C@H](NCCCN(C[C@H](O)[C@@H](O)[C@H](O)[C@H](O)CO)C[C@H](O)[C@@H](O)[C@H](O)[C@H](O)CO)C(N)=O)cc21` [Example 61, 2-[({3-amino-5H-pyrrolo[2,3-b]pyrazin-2-yl}formamido)methyl]-6-{[(3S)-3-[(3-{bis[(2S,3R,4R,5R)-2,3,4,5,6-pentahydroxyhexyl]amino}propyl)amino]-3-carbamoylpropyl]carbamoyl}-1,3-diethyl-1H-1,3-benzodiazol-3-ium], at ENaC, the IC50 was 43 nM. Further, the concentration at 6 h in series [1] stood at 167 ng/mL.
With `CCn1c(CNC(=O)c2nc3cc[nH]c3nc2N)[n+](CC)c2ccc(C(=O)NCCCCc3ccc(CCC(NCCCN(C[C@H](O)[C@@H](O)[C@H](O)[C@H](O)CO)C[C@H](O)[C@@H](O)[C@H](O)[C@H](O)CO)C(N)=O)cc3)cc21` (stereo partly drawn) [Example 62, 2-[({3-amino-5H-pyrrolo[2,3-b]pyrazin-2-yl}formamido)methyl]-6-{[4-(4-{3-[(3-{bis[(2S,3R,4R,5R)-2,3,4,5,6-pentahydroxyhexyl]amino}propyl)amino]-3-carbamoylpropyl}phenyl)butyl]carbamoyl}-1,3-diethyl-1H-1,3-benzodiazol-3-ium], the IC50 on ENaC was 24 nM. Moreover, in series [1], the concentration at 6 h turned out to be 140 ng/mL.
